# Measured values taken from ChEMBL document CHEMBL4270495, “Oleanane-, ursane-, and quinone methide friedelane-type triterpenoid derivatives: Recent advances in cancer treatment” (Eur J Med Chem, 2017).
# pIC50: −log10 of the molar value.
# Tests used:
# RAW264.7 = assay: Anti-inflammatory activity in mouse RAW264.7 cells assessed as inhibition of nitric oxide production; format: functional, cell-based
# MCF7 [1] = assay: Cytotoxicity in human MCF7 cells assessed as reduction in cell viability incubated for 72 hrs by CCK8 assay; format: functional, cell-based; conditions: MCF7, 72 h
# HepG2 [2] = assay: Cytotoxicity in human HepG2 cells assessed as reduction in cell viability incubated for 72 hrs by CCK8 assay; format: functional, cell-based; conditions: HepG2, 72 h
# A549 [3] = assay: Cytotoxicity in human A549 cells assessed as reduction in cell viability incubated for 72 hrs by CCK8 assay; format: functional, cell-based; conditions: A549, 72 h
# HeLa [4] = assay: Cytotoxicity in human HeLa cells assessed as reduction in cell viability incubated for 72 hrs by CCK8 assay; format: functional, cell-based
# MCF7 [5] = assay: Cytotoxicity in human MCF7 cells assessed as reduction in cell viability incubated for 24 hrs by MTT assay; format: functional, cell-based; conditions: MCF7, 24 h
# A549 [6] = assay: Cytotoxicity in human A549 cells assessed as reduction in cell viability incubated for 24 hrs by MTT assay; format: functional, cell-based; conditions: A549, 24 h
# NCI-H446 = assay: Cytotoxicity in human NCI-H446 cells assessed as reduction in cell viability incubated for 24 hrs by MTT assay; format: functional, cell-based; conditions: NCI-H446, 24 h
# A-375 = assay: Cytotoxicity in human A375 cells assessed as reduction in cell viability incubated for 24 hrs by MTT assay; format: functional, cell-based; conditions: A-375, 24 h
# HepG2 [7] = assay: Cytotoxicity in human HepG2 cells assessed as reduction in cell viability incubated for 24 hrs by MTT assay; format: functional, cell-based; conditions: HepG2, 24 h
# SGC-7901 = assay: Cytotoxicity in human SGC7901 cells assessed as reduction in cell viability incubated for 48 hrs by MTT assay; format: functional, cell-based; conditions: SGC-7901, 48 h
# HepG2 [8] = assay: Cytotoxicity in human HepG2 cells assessed as reduction in cell viability incubated for 48 hrs by MTT assay; format: functional, cell-based; conditions: HepG2, 48 h
# HeLa [9] = assay: Cytotoxicity in human HeLa cells assessed as reduction in cell viability incubated for 48 hrs by MTT assay; format: functional, cell-based
# MCF7 [10] = assay: Cytotoxicity in human MCF7 cells assessed as reduction in cell viability incubated for 72 hrs by MTT assay; format: functional, cell-based; conditions: MCF7, 72 h
# HT-29 = assay: Cytotoxicity in human HT-29 cells assessed as reduction in cell viability incubated for 72 hrs by MTT assay; format: functional, cell-based; conditions: HT-29, 72 h
# HeLa [11] = assay: Cytotoxicity in human HeLa cells assessed as reduction in cell viability incubated for 72 hrs by MTT assay; format: functional, cell-based
# T-24 = assay: Cytotoxicity in human T24 cells assessed as reduction in cell viability incubated for 48 hrs by MTT assay; format: functional, cell-based; conditions: T-24, 48 h
# HUVEC = assay: Cytotoxicity in HUVEC cells assessed as reduction in cell viability incubated for 48 hrs by MTT assay; format: cell-based; conditions: Homo sapiens
# [12] = Cytotoxicity in human SPCA2 cells assessed as reduction in cell viability incubated for 48 hrs by MTT assay; format: functional, cell-based; conditions: SPCA2, 48 h
# A549 [13] = assay: Cytotoxicity in human A549 cells assessed as reduction in cell viability incubated for 48 hrs by MTT assay; format: functional, cell-based; conditions: A549, 48 h
structure (smiles),measurement,setting,value
C[C@H]1[C@H](C)CC[C@@]23CC[C@@]4(C)[C@]5(C)CC[C@H]6C(C)(C)C(=O)C(C#N)=C[C@]6(C)C5=CC(=O)[C@]4(OC2=O)[C@H]13,pIC50,RAW264.7,5.10
COC(=O)C(C)NC(=O)[C@]12CC[C@@H](C)[C@H](C)[C@H]1C1=CC[C@@H]3[C@@]4(C)C[C@@H](O)[C@H](O)[C@@](C)(CO)[C@@H]4CC[C@@]3(C)[C@]1(C)CC2 (stereo partly drawn),pIC50,MCF7 [1],4.77
same,pIC50,HepG2 [2],4.69
same,pIC50,A549 [3],4.66
same,pIC50,HeLa [4],4.72
C[C@H]1[C@H](C)CC[C@]2(C(=O)n3ccnc3)CC[C@]3(C)C(=CC[C@@H]4[C@@]5(C)C=C(C#N)C(=O)C(C)(C)[C@@H]5CC[C@]43C)[C@H]12,pIC50,RAW264.7,5.30
C[C@@H]1O[C@@H](O[C@H]2CC[C@@]3(C)[C@@H](CC[C@]4(C)[C@@H]3CC=C3[C@H]5CC(C)(C)CC[C@]5(C(=O)O)CC[C@]34C)[C@]2(C)CO)[C@H](O)[C@H](O)[C@H]1O[C@@H]1OC[C@H](O)[C@H](O)[C@H]1O,pIC50,MCF7 [5],4.38
same,pIC50,A549 [6],4.76
COC(=O)C(CO)NC(=O)[C@]12CC[C@@H](C)[C@@](C)(O)[C@H]1C1=CC(=O)[C@@H]3[C@@]4(C)CC[C@H](OC(C)=O)[C@](C)(COC(C)=O)[C@@H]4CC[C@@]3(C)[C@]1(C)CC2 (stereo partly drawn),pIC50,NCI-H446,5.42
same,pIC50,A-375,5.22
same,pIC50,HepG2 [7],5.47
C[C@@H]1CC[C@]2(C(=O)OCC(=O)N/N=C/c3ccc(Cl)cc3)CC[C@]3(C)C(=CC(=O)[C@@H]4[C@@]5(C)CC[C@H](O)[C@](C)(CO)[C@@H]5CC[C@]43C)[C@@H]2[C@]1(C)O,pIC50,SGC-7901,< 4.00
same,pIC50,HepG2 [8],< 4.00
same,pIC50,HeLa [9],< 4.00
COC(=O)[C@]12CCC(C)(C)C[C@H]1[C@H]1C(=O)C=C3[C@@]4(C)C=C(C#N)C(=O)C(C)(C)[C@@H]4CC[C@@]3(C)[C@]1(C)CC2 [BARDOXOLONE METHYL],pIC50,RAW264.7,5.40
CC1(C)CC[C@]2(C(=O)O)CC[C@]3(C)C(=CC[C@@H]4[C@@]5(C)CC[C@H](O[C@@H]6OC[C@H](O[C@@H]7OC[C@H](O)[C@H](O)[C@H]7O)[C@H](O[C@H]7O[C@H](CO)[C@@H](O)[C@H](O)[C@@H]7O)[C@H]6O)[C@@](C)(CO)[C@@H]5CC[C@]43C)[C@H]2C1,pIC50,MCF7 [5],< 4.30
same,pIC50,A549 [6],4.75
COC(=O)[C@]12CC[C@@H](C)[C@H](C)[C@H]1C1=CC(=O)[C@@H]3[C@@]4(C)C(C#N)=C[C@@](C)(COS(C)(=O)=O)[C@@H]4CC[C@@]3(C)[C@]1(C)CC2,pIC50,MCF7 [10],4.71
same,pIC50,HT-29,5.01
same,pIC50,HeLa [11],5.14
CCOP(=O)(OCC)C(NC(=O)[C@]12CC[C@@H](C)[C@H](C)[C@H]1C1=CC[C@@H]3[C@@]4(C)C[C@@H](OC(C)=O)[C@H](OC(C)=O)[C@@](C)(COC(C)=O)[C@@H]4CC[C@@]3(C)[C@]1(C)CC2)c1ccccc1Cl (stereo partly drawn),pIC50,T-24,5.18
same,pIC50,HUVEC,< 4.00
same,pIC50,[12],4.82
same,pIC50,A549 [13],4.83
C[C@@H]1CC[C@]2(C(=O)OCC(=O)N/N=C/c3ccc([N+](=O)[O-])cc3)CC[C@]3(C)C(=CC(=O)[C@@H]4[C@@]5(C)CC[C@H](O)[C@](C)(CO)[C@@H]5CC[C@]43C)[C@@H]2[C@]1(C)O,pIC50,SGC-7901,4.81
same,pIC50,HepG2 [8],5.06
same,pIC50,HeLa [9],4.73
CCOP(=O)(OCC)C(NC(=O)[C@]12CC[C@@H](C)[C@H](C)[C@H]1C1=CC[C@@H]3[C@@]4(C)C[C@@H](OC(C)=O)[C@H](OC(C)=O)[C@@](C)(COC(C)=O)[C@@H]4CC[C@@]3(C)[C@]1(C)CC2)c1ccc(Cl)cc1 (stereo partly drawn),pIC50,T-24,5.05
same,pIC50,HUVEC,< 4.00
same,pIC50,[12],4.79
same,pIC50,A549 [13],4.80
COC(=O)[C@]12CC[C@@H](C)[C@H](C)[C@H]1C1=CC[C@@H]3[C@@]4(C)C=C(C#N)C(=O)C(C)(C)[C@@H]4CC[C@@]3(C)[C@]1(C)CC2,pIC50,RAW264.7,4.77
CC1(C)CC[C@]2(C(=O)n3ccnc3)CC[C@]3(C)[C@H](C(=O)C=C4[C@@]5(C)C=C(C#N)C(=O)C(C)(C)[C@@H]5CC[C@]43C)[C@@H]2C1,pIC50,RAW264.7,6.00
